The test system of series [1] is beets. The series is described as follows: Beet cultivation in PCN-contaminated farmland after spraying around the roots (2007). It counts as in vivo. Conditions: cultivated 112 days; for Average weight of three beets other than the largest beet / Weight of the largest beet: PCN-contaminated farmland; for Sugar content: saccharimeter. As for the experimental part:
A farmland (Fujimi, Kutchan-cho, Hokkaido) contaminated by PCNs was examined in advance.
In that farmland, about […] beets per 1 m^2 were cultivated under the conditions that the width of a ridge was 69 cm and the distance between beets was 30 cm. […] The amount sprayed was changed to three levels, 1.8, 5.5, and 9.0 (g/m^2), and each chemical agent having the above-described amount was dissolved in 5 liters of water to obtain a spraying solution. Subsequently, the beets were cultivated for 112 days and the grown beets were harvested. The weight (kg) of the largest beet, the average weight (kg) of three beets other than the largest beet, and the sugar content (%) were measured. […] The sugar content (%) was measured with a saccharimeter (MASTER-M model 2313 available from ATAGO Co., Ltd.). […]
The mixed chemical agent contained 6% by mass of coconut oil fatty acid diethanolamide and 0.6% by mass of polyethylene glycol.

The subject of the next series is PCN. The series can be described thus: PCN density in treated farmland sections (2008). Type of series: in vivo, potato cyst nematodes.
The test system of series [2] is beets. The series can be described thus: Beet cultivation after treatments of farmland sections (2008). It counts as in vivo. Conditions: for Average weight / Weight of the largest beet: sprayed once before planting; for growth promotion / enlargement of a beet (in words): results of beet cultivation of Table 8. How it is done: [table] The beets were cultivated under the conditions that the width of a ridge was 69 cm and the distance between beets was 30 cm. […] Then the beets were cultivated until Oct. 8, 2008 and harvested. After the stems and leaves of the harvested beets were removed, the weight of the beets was measured.

The next series deals with PCNs. The series can be described thus: PCN control at a site where a potato had been cultivated: nematode density after spraying. As to conditions: sprayed amount 9.0 g/m^2; soil had 2000 to 5000 PCNs per 20 g. Type of series: in vivo, potato cyst nematodes. An excerpt:
After the chemical agents were sprayed, all the cysts in 20 g of air-dried soil were gathered and the total number of eggs and second-generation larvae in the cysts was obtained.

Series [3] relates to eggs of potato cyst nematodes. The series is described as follows: Accelerated hatching effect of aqueous fatty acid dialkanolamide solution. Type of series: in vivo. As to conditions: 1000-fold diluted aqueous solution; water 5.0%. How it is done: The accelerated hatching effect of an aqueous fatty acid dialkanolamide solution for the eggs of potato cyst nematodes was measured. […] It is believed that the fatty acid dialkanolamide has a function of breaking the eggshell of PCNs and thus the eggs of PCNs are forcedly hatched.

Series [4] in a line: Polarity and solubility in water. It counts as physicochemical. Conditions: research conducted by the inventors. The text has this: Thus, the inventors of the present invention have focused on an ecological method. The ecological method is an indirect method in which the eggs of PCNs are forcedly hatched in some way, and then the hatched larvae are made to starve to death or destroyed using a typical agricultural chemical, which results in the prevention of the damage caused by the PCNs. It has been known for a long time that PCNs hatch when exposed to a substance secreted from the host plants, and there has been conducted a study for identifying a hatching-activating substance and isolating it from the secretory substance. Patent Document 1 discloses Solanoeclepin A as the hatching-activating substance.

Where [5] appears, read: 260 mg in 100 ml of water per single beet.
Where [6] appears, read: 260 mg in 100 ml of water per two beets.

As to `CC(=O)N(CCO)CCO` [Example 1, acetic acid diethanolamide], in the series with beets [1] (sprayed amount 1.8 g/m^2, once), the “Average weight of three beets other than the largest beet” value was found to be 1.63 kg, the “Weight of the largest beet” value turned out to be 2.85 kg and the Sugar content came to 19.80%. In addition, in the series on beets [1] (sprayed amount 5.5 g/m^2, once), the “Average weight of three beets other than the largest beet” value was found to be 1.68 kg, the “Weight of the largest beet” value stood at 2.53 kg and the Sugar content came out at 20.10%. In the series with beets [1] (sprayed amount 9.0 g/m^2, once), the “Average weight of three beets other than the largest beet” value is reported as 1.40 kg, the “Weight of the largest beet” value came to 1.90 kg and the Sugar content is on record as 19.90%.
With `CCCCCC(=O)N(CCO)CCO` [Example 15, hexanoic acid diethanolamide], the PCN density with PCN (260 mg in 100 ml of water sprayed around the area of a single beet) was 600 /20 g of air-dried soil. The “effect on PCN density (in words)” value in the series with PCN (section 2-1 compared with section 1-1) was “decreases PCN density”. Further, in the series on beets [2] (setting [5]), the Average weight was 1.55 kg and the “Weight of the largest beet” value stood at 2.10 kg. Besides, the “growth promotion / enlargement of a beet (in words)” value (shortened to “growth promotion / enlargement”) in the series with beets [2] was “achieves the enlargement of a beet”.
Turning to `CCCCCCCCCC(=O)NCCO` [compound 14, decanoic acid monoethanolamide], in the series with beets [2] (setting [6]), the Average weight amounted to 1.10 kg and the “Weight of the largest beet” value was 1.80 kg. Besides, in the series with beets [2], the “growth promotion / enlargement” value was “poor effect of growth promotion”.
For the compound `CCCCCCCCCC(=O)N(CCO)CCO` [Example 4, decanoic acid diethanolamide], the “Nematode density (total number of eggs and second-generation larvae in the cysts)” value with PCNs is 765 /20 g of air-dried soil. The hatching ratio in series [3] worked out at 23.8%. Besides, the “Average weight of three beets other than the largest beet” value with beets [1] (sprayed amount 1.8 g/m^2, once) is recorded as 1.86 kg; with beets [1] (sprayed amount 5.5 g/m^2, once) it was 1.92 kg; with beets [1] (sprayed amount 9.0 g/m^2, once), 1.62 kg. Besides, the “Weight of the largest beet” value in the series on beets [1] (sprayed amount 1.8 g/m^2, once) is reported as 2.20 kg; in the series on beets [1] (sprayed amount 5.5 g/m^2, once), 2.35 kg; in the series with beets [1] (sprayed amount 9.0 g/m^2, once) it was 2.15 kg. The Sugar content with beets [1] (sprayed amount 1.8 g/m^2, once) was found to be 21.20%; in the series with beets [1] (sprayed amount 5.5 g/m^2, once), 20.00%; in the series on beets [1] (sprayed amount 9.0 g/m^2, once) it was 23.40%.
Consider `CCCCCCCCCCCCCCCCCC(=O)N(CCO)CCO` [Example 7, octadecanoic acid diethanolamide], for which, in the series with PCNs, the “Nematode density (total number of eggs and second-generation larvae in the cysts)” value is 540 /20 g of air-dried soil. In addition, in the series with beets [1] (sprayed amount 1.8 g/m^2, once), the “Average weight of three beets other than the largest beet” value is given as 1.48 kg, the “Weight of the largest beet” value stood at 2.05 kg and the Sugar content is given as 20.20%. Moreover, in the series on beets [1] (sprayed amount 5.5 g/m^2, once), the “Average weight of three beets other than the largest beet” value is reported as 1.65 kg, the “Weight of the largest beet” value came to 1.95 kg and the Sugar content is 20.20%. In addition, in the series on beets [1] (sprayed amount 9.0 g/m^2, once), the “Average weight of three beets other than the largest beet” value was found to be 1.85 kg, the “Weight of the largest beet” value amounted to 2.30 kg and the Sugar content came to 21.00%.
For the compound `CC(=O)NCCO` [compound 13, acetic acid monoethanolamide], in the series with beets [2] (setting [6]), the Average weight turned out to be 1.40 kg and the “Weight of the largest beet” value was 1.40 kg. Besides, the “growth promotion / enlargement” value in the series with beets [2] is given as “poor effect of growth promotion”.
Take `COC1=C2C(C)(C)[C@H]3O[C@@]2(CC3=O)[C@@H](O)C2=C(C1=O)[C@@]13C(=O)[C@@]([C@@H]4C[C@H]4C(=O)O)(C[C@@H]1O)[C@]3(C)CC2` [Solanoeclepin A]: the solubility in water entry in series [4] is listed as “poor solubility in water”.

The values are drawn from patent US20100331189A1, “Plant Growth Promoter Utilizing Potato Cyst Nematode” (TOKAI UNIVERSITY EDUCATIONAL SYSTEM, priority 2008, published 2010).
